Assay results reported in patent publication US20220104492A1, “PYRIDAZINIUM COMPOUNDS FOR USE IN A METHOD OF CONTROLLING UNWANTED PLANT GROWTH” (SYNGENTA CROP PROTECTION AG, priority 2019, published 2022).

Key:
Assay in all cases: Post-emergence efficacy (glasshouse, spray application)
Format in all cases: in vivo
[1] = system: Ipomoea hederacea (IPOHE); details: 312 h, Application rate 500 g/Ha, evaluated after 13 days, 100=total damage to plant, 0=no damage to plant, read-out: Control of weed species after post-emergence application, IPOHE
[2] = system: Echinochloa crus-galli (ECHCG); details: 312 h, Application rate 500 g/Ha, evaluated after 13 days, 100=total damage to plant, 0=no damage to plant, read-out: Control of weed species after post-emergence application, ECHCG
[3] = system: Setaria faberi (SETFA); details: 312 h, Application rate 500 g/Ha, evaluated after 13 days, 100=total damage to plant, 0=no damage to plant, read-out: Control of weed species after post-emergence application, SETFA
[4] = system: Amaranthus palmeri (AMAPA); details: 312 h, Application rate 500 g/Ha, evaluated after 13 days, 100=total damage to plant, 0=no damage to plant, read-out: Control of weed species after post-emergence application, AMAPA
[5] = system: Chenopodium album (CHEAL); details: 312 h, Application rate 500 g/Ha, evaluated after 13 days, 100=total damage to plant, 0=no damage to plant, read-out: Control of weed species after post-emergence application, CHEAL
[6] = system: Euphorbia heterophylla (EPHHL); details: 312 h, Application rate 500 g/Ha, evaluated after 13 days, 100=total damage to plant, 0=no damage to plant, read-out: Control of weed species after post-emergence application, EPHHL
[7] = system: Digitaria sanguinalis (DIGSA); details: 312 h, Application rate 500 g/Ha, evaluated after 13 days, 100=total damage to plant, 0=no damage to plant, read-out: Control of weed species after post-emergence application, DIGSA
[8] = system: Lolium perenne (LOLPE); details: 312 h, Application rate 500 g/Ha, evaluated after 13 days, 100=total damage to plant, 0=no damage to plant, read-out: Control of weed species after post-emergence application, LOLPE
[9] = system: Eleusine indica (ELEIN); details: 312 h, Application rate 500 g/Ha, evaluated after 13 days, 100=total damage to plant, 0=no damage to plant, read-out: Control of weed species after post-emergence application, ELEIN

SMILES	pest or weed control at 500 g/ha [1] [%]	pest or weed control at 500 g/ha [2] [%]	pest or weed control at 500 g/ha [3] [%]	pest or weed control at 500 g/ha [4] [%]	pest or weed control at 500 g/ha [5] [%]	pest or weed control at 500 g/ha [6] [%]	pest or weed control at 500 g/ha [7] [%]	pest or weed control at 500 g/ha [8] [%]	pest or weed control at 500 g/ha [9] [%]
CC(C)(NC(=O)CC[n+]1ccc(-c2ncccn2)cn1)C(=O)O [Compound A32]	30	70	80	100	100	80	80	60	80
O=C(O)CCC(=O)C[n+]1ccc(-c2ncccn2)cn1 [Compound A9, 4-oxo-5-(4-pyrimidin-2-ylpyridazin-1-ium-1-yl)pentanoic acid chloride]	40	70	30	70	70	70	50	0	70
